US7795229B2, “Serum cholesterol lowering agent or preventative or therapeutic agent for atherosclerosis” (Kotobuki Pharmaceutical Co., Ltd., priority 2003, dated 2010)

SMILES	melting point [°C]
O=C1[C@H](CCCc2ccc(F)cc2)[C@@H](c2ccc(C3O[C@H](CO)[C@@H](O)[C@H](O)[C@H]3O)cc2)N1c1ccc(F)cc1 (stereo partly shown) [Compound 1]	89 to 90
O=C1[C@H](CCCc2ccc(F)cc2)[C@@H](c2ccc(C[C@@H]3O[C@H](CO)[C@@H](O)[C@H](O)[C@H]3O)cc2)N1c1ccc(F)cc1 [Compound 2]	110 to 112
CC(=O)OC[C@H]1O[C@@H](Cc2ccc([C@@H]3[C@@H](CCCc4ccc(F)cc4)C(=O)N3c3ccc(F)cc3)cc2)[C@H](OC(C)=O)[C@@H](OC(C)=O)[C@@H]1OC(C)=O [Compound 3]	56 to 58
O=C1[C@H](CCCc2ccc(F)cc2)[C@@H](c2ccc(C[C@@H]3O[C@H](CO)[C@@H](O)[C@H](O)[C@H]3O)cc2)N1c1ccc(Cl)cc1 [Compound 4]	76 to 78
COc1ccc(N2C(=O)[C@H](CCCc3ccc(F)cc3)[C@H]2c2ccc(C[C@@H]3O[C@H](CO)[C@@H](O)[C@H](O)[C@H]3O)cc2)cc1 [Compound 5]	73 to 75
COc1ccc(N2C(=O)[C@H](CCCc3ccc(F)cc3)[C@H]2c2ccc(C[C@@H]3O[C@H](COC(C)=O)[C@@H](OC(C)=O)[C@H](OC(C)=O)[C@H]3OC(C)=O)cc2)cc1 [Compound 6]	60 to 62
Cc1ccc(N2C(=O)[C@H](CCCc3ccc(F)cc3)[C@H]2c2ccc(C[C@@H]3O[C@H](CO)[C@@H](O)[C@H](O)[C@H]3O)cc2)cc1 [Compound 7]	80 to 82
CC(=O)OC[C@H]1O[C@@H](Cc2ccc([C@@H]3[C@@H](CCCc4ccc(F)cc4)C(=O)N3c3ccccc3)cc2)[C@H](OC(C)=O)[C@@H](OC(C)=O)[C@@H]1OC(C)=O [Compound 10]	60 to 61
O=C1[C@H](CCCc2ccccc2)[C@@H](c2ccc(C[C@@H]3O[C@H](CO)[C@@H](O)[C@H](O)[C@H]3O)cc2)N1c1ccc(F)cc1 [Compound 11]	74 to 75
CC(=O)OC[C@H]1O[C@@H](Cc2ccc([C@@H]3[C@@H](CCOc4ccc(F)cc4)C(=O)N3c3ccc(F)cc3)cc2)[C@H](OC(C)=O)[C@@H](OC(C)=O)[C@@H]1OC(C)=O [Compound 13]	64 to 66
O=C1[C@H](CCCc2ccc(F)cc2)[C@@H](c2ccc(OC[C@@H]3O[C@H](CO)[C@@H](O)[C@H](O)[C@H]3O)cc2)N1c1ccc(F)cc1 [Compound 14]	61 to 62
O=C1[C@H](CCCc2ccc(F)cc2)[C@@H](c2ccc(OC[C@@H]3O[C@H](CO)[C@@H](O)[C@H](O)[C@H]3O)cc2)N1Cc1ccccc1 [Compound 16]	73 to 75
Cc1ccc(CCC[C@H]2C(=O)N(c3ccc(OC(C)(C)C(=O)O)cc3)[C@@H]2c2ccc(C[C@@H]3O[C@H](CO)[C@@H](O)[C@H](O)[C@H]3O)cc2)cc1 [Compound 21]	161 to 162
O=C1[C@H](CC[C@H](O)c2ccc(F)cc2)[C@@H](c2ccc(C[C@@H]3O[C@H](CO)[C@@H](O)[C@H](O)[C@H]3O)cc2)N1c1ccccc1 [Compound 23]	104 to 106
O=C(CC[C@H]1C(=O)N(c2ccc(F)cc2)[C@@H]1c1ccc(C[C@@H]2O[C@H](CO)[C@@H](O)[C@H](O)[C@H]2O)cc1)c1ccc(F)cc1 [Compound 26]	78 to 80
O=C(CC[C@H]1C(=O)N(c2ccccc2)[C@@H]1c1ccc(C[C@@H]2O[C@H](CO)[C@@H](O)[C@H](O)[C@H]2O)cc1)c1ccc(F)cc1 [Compound 27]	104 to 106
Cc1ccc(N2C(=O)[C@H](CCC(=O)c3ccc(F)cc3)[C@H]2c2ccc(C[C@@H]3O[C@H](CO)[C@@H](O)[C@H](O)[C@H]3O)cc2)cc1 [Compound 28]	86 to 88
O=C(O)c1ccc(N2C(=O)[C@H](CC[C@H](O)c3ccc(F)cc3)[C@H]2c2ccc(C[C@@H]3O[C@H](CO)[C@@H](O)[C@H](O)[C@H]3O)cc2)cc1 [Compound 29]	148 to 150
O=C(O)c1ccc(N2C(=O)[C@H](CCC(=O)c3ccc(F)cc3)[C@H]2c2ccc(C[C@@H]3O[C@H](CO)[C@@H](O)[C@H](O)[C@H]3O)cc2)cc1 [Compound 30]	102 to 104
O=C(O)c1ccc(N2C(=O)[C@H](CCCc3ccc(F)cc3)[C@H]2c2ccc(C[C@@H]3O[C@H](CO)[C@@H](O)[C@H](O)[C@H]3O)cc2)cc1 [Compound 31]	97 to 99

Further lines, results first:

melting point [°C]	SMILES
56 to 58	CC(=O)OC[C@H]1O[C@@H](Cc2ccc([C@@H]3[C@@H](CCCc4ccc(F)cc4)C(=O)N3c3ccc(C)cc3)cc2)[C@H](OC(C)=O)[C@@H](OC(C)=O)[C@@H]1OC(C)=O [Compound 8]
84 to 86	O=C1[C@H](CCCc2ccc(F)cc2)[C@@H](c2ccc(C[C@@H]3O[C@H](CO)[C@@H](O)[C@H](O)[C@H]3O)cc2)N1c1ccccc1 [Compound 9]
65 to 67	O=C1[C@H](CCOc2ccc(F)cc2)[C@@H](c2ccc(C[C@@H]3O[C@H](CO)[C@@H](O)[C@H](O)[C@H]3O)cc2)N1c1ccc(F)cc1 [Compound 12]
64 to 65	O=C1[C@H](CCOc2ccc(F)cc2)[C@@H](c2ccc(OC[C@@H]3O[C@H](CO)[C@@H](O)[C@H](O)[C@H]3O)cc2)N1c1ccc(F)cc1 [Compound 15]
105 to 106	O=C(O)[C@H]1O[C@@H](Cc2ccc([C@@H]3[C@@H](CCCc4ccc(F)cc4)C(=O)N3c3ccc(F)cc3)cc2)[C@H](O)[C@@H](O)[C@@H]1O [Compound 17]
73 to 74	CCOC(=O)C(C)(C)Oc1ccc(N2C(=O)[C@H](CCCc3ccc(F)cc3)[C@H]2c2ccc(C[C@@H]3O[C@H](CO)[C@@H](O)[C@H](O)[C@H]3O)cc2)cc1 [Compound 18]
170 to 172	CC(C)(Oc1ccc(N2C(=O)[C@H](CCCc3ccc(F)cc3)[C@H]2c2ccc(C[C@@H]3O[C@H](CO)[C@@H](O)[C@H](O)[C@H]3O)cc2)cc1)C(=O)O [Compound 19]
76 to 78	CCOC(=O)C(C)(C)Oc1ccc(N2C(=O)[C@H](CCCc3ccc(C)cc3)[C@H]2c2ccc(C[C@@H]3O[C@H](CO)[C@@H](O)[C@H](O)[C@H]3O)cc2)cc1 [Compound 20]
115 to 117	O=C1[C@H](CC[C@H](O)c2ccc(F)cc2)[C@@H](c2ccc(C[C@@H]3O[C@H](CO)[C@@H](O)[C@H](O)[C@H]3O)cc2)N1c1ccc(F)cc1 [Compound 22]
102 to 104	Cc1ccc(N2C(=O)[C@H](CC[C@H](O)c3ccc(F)cc3)[C@H]2c2ccc(C[C@@H]3O[C@H](CO)[C@@H](O)[C@H](O)[C@H]3O)cc2)cc1 [Compound 24]
67 to 69	O=C1[C@H](CCCc2ccc(F)cc2)[C@@H](c2ccc(C[C@@H]3O[C@H](CO)[C@@H](O)[C@H](O)[C@H]3O)cc2)N1c1ccc(F)cc1 [Compound 25]
82 to 84	O=C(O)[C@H]1O[C@@H](Cc2ccc([C@@H]3[C@@H](CC[C@H](O)c4ccc(F)cc4)C(=O)N3c3ccc(F)cc3)cc2)[C@H](O)[C@@H](O)[C@@H]1O [Compound 33]
83 to 85	O=C(CC[C@H]1C(=O)N(c2ccc(F)cc2)[C@@H]1c1ccc([C@@H]2O[C@H](CO)[C@@H](O)[C@H](O)[C@H]2O)cc1)c1ccc(F)cc1 [Compound 34]
81 to 83	O=C1[C@H](CC[C@H](O)c2ccc(F)cc2)[C@@H](c2ccc([C@@H]3O[C@H](CO)[C@@H](O)[C@H](O)[C@H]3O)cc2)N1c1ccc(F)cc1 [Compound 35]
